Measurements reported in patent US20260028584A1, “METHOD FOR EVALUATING AGGREGATION-SUPPRESSING ACTIVITY OR AGGREGATION-PROMOTING ACTIVITY ON AGGREGATING PROTEIN USING ORGANOID, AND METHOD FOR PRODUCING ORGANOID” (KANEKA CORPORATION, priority 2023, published 2026).

Molecular target: T1, amyloid β protein (QD-Aβ / Aβ42) deposited on and/or in cerebral organoid (Homo sapiens, UniProt P05067)
T1 construct: To a reagent bottle of Aβ1-42 0.5 mg (manufactured by Peptide Institute, Inc.: Cat No. 4394v); purchased Peptide Institute, Inc. 4394v; host or cells: synthetic peptide, added to the culture of a cerebral organoid derived from human iPS cells (HPS08554)
T1 sequence (P05067 672-713): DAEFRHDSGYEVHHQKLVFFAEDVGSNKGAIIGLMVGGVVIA
Assay: Aβ deposition suppression on cerebral organoid with quantum dot-modified amyloid β (QD-Aβ), fluorescence image analysis
Assay type: cell-based
Conditions: rosmarinic acid 50 μM; QD-Aβ 30 nM, artificial Aβ 10 μM; human iPS cell-derived cerebral organoid; 24 hours at 37° C.
Protocol: An end of a tip for 1000 μL was cut with sterilized scissors, and the organoid grown to a diameter of 1 mm or larger prepared in Example 1 was sucked so as not to collapse, and transferred to a U-bottom 96-well plate. […]
The next day, the culture supernatant was completely removed so as not to suck the organoid, and after 150 μL of a fresh NbM medium was added, the cultured organoid was observed and photographed using a fluorescence microscope.
Using a fluorescent microscope (BZ-X800 manufactured by Keyence Corporation), the cultured organoid in Example 2 was photographed in a bright field at high resolution with an exposure time of 1/500 s to 1/2000 s, or at high sensitivity with an exposure time of 1/2000 s to 1/5000 s, using a Z stack with 20 μm intervals. […] Thereafter, in order to observe the deposition of quantum dot-modified amyloid β on the cultured organoid, red fluorescence was observed using a TRITC lens at high sensitivity with an exposure time of ¼ s to 1/8.5 s, and images were obtained according to the above procedure.
Each of the images obtained above was analyzed as follows. Specifically, the hybrid cell count function was used to read the organoid images used in the various tests, select the bright field, and then set the extraction selection to OFF. The threshold of the read bright-field images was set to 200, and the organoid area was calculated (organoid surface area). […]

Structure (SMILES): O=C(/C=C/c1ccc(O)c(O)c1)O[C@H](Cc1ccc(O)c(O)c1)C(=O)O [rosmarinic acid, Rosmarinic acid]
- Aβ deposition suppression rate: less than 5.0%
